# According to US20110105474A1, “HETEROCYCLIC DERIVATIVES AS HDAC INHIBITORS” (DAC S.r.l., priority 2008, published 2011):
# Where a name gives a salt, the structure may show the parent alone.
# What was measured:
# Assay type in all cases: cell-based
# K562 cells = test: Cell growth, CellTiter-Glo Luminescent Cell Viability Assay, K562; settings: Homo sapiens, 72 h incubation
# Description: (§1) CellTiter-Glo® Luminescent Cell Viability Assay (Promega) is a homogeneous method of determining the number of viable cells in culture based on quantitation of the present ATP, which indicates the presence of metabolically active cells. The homogeneous assay procedure involves addition of a single reagent (CellTiter-Glo®Reagent) directly to the cells, which leads to cell lysis and generation of a luminescent signal proportional to the amount of the ATP and the number of cells present in culture. The assay relies on the properties of a proprietary thermostable luciferase (Ultra-Glo® recombinant luciferase), which generates a luminescent signal.
# (§2) K562, A549 and HCT-116 cells, in exponential growth, were incubated for 72 h with different concentrations of the inhibitors. After 72 h, a volume of CellTiter-Glo® Reagent equal to the volume of cell culture medium was added. The content was mixed for 2 min to induce cell lysis. The luminescence was recorded after further 10 min at RT in order to obtain a stabilized luminescent signal.
# (§3) The IC50 was calculated using GraphPad Software.
# (§4) IC50 results were allocated to one of 3 ranges as follows: Range A: IC50≦1.0 μM; Range B: from 1.0 to 3.0 μM; Range C: IC50≧3.0 μM.
# A549 cells = test: Cell growth, CellTiter-Glo Luminescent Cell Viability Assay, A549; settings: Homo sapiens, 72 h incubation
# Description: as §1, §2, §3, §4
# HCT-116 cells = test: Cell growth, CellTiter-Glo Luminescent Cell Viability Assay, HCT-116; settings: Homo sapiens, 72 h incubation, read-out: IC50 HCT116
# Description: as §1, §2, §3, §4
Structure (SMILES),IC50 (K562 cells),IC50 (A549 cells),IC50 (HCT-116 cells)
"O=C(/C=C/c1cccc(/C=C/C(=O)N2CCCC(c3ccccc3)C2)n1)NO (racemic) [Example 25, (±)-(E)-N-Hydroxy-3-{6-[(E)-3-oxo-3-(3-phenyl-piperidin-1-yl)-propenyl]-pyridin-2-yl}-acrylamide hydrochloride]",≤ 1000 nM,≤ 1000 nM,≤ 1000 nM
"O=C(/C=C/c1cccc(/C=C/C(=O)N2CCNC(c3ccccc3)C2)n1)NO (racemic) [Example 33, (±)-(E)-N-Hydroxy-3-{6-[(E)-3-oxo-3-(3-phenyl-piperazin-1-yl)-propenyl]-pyridin-2-yl}-acrylamide hydrochloride]",1000 to 3000 nM,≥ 3000 nM,1000 to 3000 nM
"Cc1ccccc1C1CCCN(C(=O)/C=C/c2cccc(/C=C/C(=O)NO)n2)C1 (racemic) [Example 42, (±)-(E)-N-Hydroxy-3-{6-[(E)-3-oxo-3-(3-o-tolyl-piperidin-1-yl)-propenyl]-pyridin-2-yl}-acrylamide hydrochloride]",≤ 1000 nM,≤ 1000 nM,1000 to 3000 nM
"Cc1cccc(C2CCCN(C(=O)/C=C/c3cccc(/C=C/C(=O)NO)n3)C2)c1 (racemic) [Example 43, (±)-(E)-N-Hydroxy-3-{6-[(E)-3-oxo-3-(3-m-tolyl-piperidin-1-yl)-propenyl]-pyridin-2-yl}-acrylamide hydrochloride]",≤ 1000 nM,≤ 1000 nM,≤ 1000 nM
"O=C(/C=C/c1cccc(/C=C/C(=O)N2CCCC(c3cccc4ccccc34)C2)n1)NO (racemic) [Example 44, (±)-(E)-N-Hydroxy-3-{6-[(E)-3-(3-naphthalen-1-yl-piperidin-1-yl)-3-oxo-propenyl]-pyridin-2-yl}-acrylamide hydrochloride]",≤ 1000 nM,1000 to 3000 nM,≤ 1000 nM
"Cc1ccc(C2CCCN(C(=O)/C=C/c3cccc(/C=C/C(=O)NO)n3)C2)cc1 (racemic) [Example 46, (±)-(E)-N-Hydroxy-3-{6-[(E)-3-oxo-3-(3-p-tolyl-piperidin-1-yl)-propenyl]-pyridin-2-yl}-acrylamide hydrochloride]",≤ 1000 nM,1000 to 3000 nM,≤ 1000 nM
"O=C(/C=C/c1cccc(/C=C/C(=O)N2CCCC(c3ccc4ccccc4c3)C2)n1)NO (racemic) [Example 47, (±)-(E)-N-Hydroxy-3-{6-[(E)-3-(3-naphthalen-2-yl-piperidin-1-yl)-3-oxo-propenyl]-pyridin-2-yl}-acrylamide hydrochloride]",≤ 1000 nM,≤ 1000 nM,≤ 1000 nM
"O=C(/C=C/c1cccc(/C=C/C(=O)N2CCCC(c3ccc(F)cc3)C2)n1)NO (racemic) [Example 48, (±)-(E)-3-(6-{(E)-3-[3-(4-Fluoro-phenyl)-piperidin-1-yl]-3-oxo-propenyl}-pyridin-2-yl)-N-hydroxy-acrylamide hydrochloride]",≤ 1000 nM,1000 to 3000 nM,≤ 1000 nM
"O=C(/C=C/c1cccc(/C=C/C(=O)N2CCC(c3ccccc3)C2)n1)NO (racemic) [Example 52, (±)-(E)-N-Hydroxy-3-{6-[(E)-3-oxo-3-(3-phenyl-pyrrolidin-1-yl)-propenyl]-pyridin-2-yl}-acrylamide hydrochloride]",1000 to 3000 nM,≥ 3000 nM,1000 to 3000 nM
"O=C(/C=C/c1cccc(/C=C/C(=O)N2CCCCC2c2ccccc2)n1)NO (racemic) [Example 53, (±)-(E)-N-Hydroxy-3-{6-[(E)-3-oxo-3-(2-phenyl-piperidin-1-yl)-propenyl]-pyridin-2-yl}-acrylamide hydrochloride]",≤ 1000 nM,1000 to 3000 nM,≤ 1000 nM
"O=C(/C=C/c1cccc(/C=C/C(=O)N2CCCC(c3ccccc3)CC2)n1)NO (racemic) [Example 54, (±)-(E)-N-Hydroxy-3-{6-[(E)-3-oxo-3-(4-phenyl-azepan-1-yl)-propenyl]-pyridin-2-yl}-acrylamide hydrochloride]",≤ 1000 nM,1000 to 3000 nM,≤ 1000 nM
"CN1CCN(C(=O)/C=C/c2cccc(/C=C/C(=O)NO)n2)CC1c1ccccc1 (racemic) [Example 63, (±)-(E)-N-Hydroxy-3-{6-[(E)-3-(4-methyl-3-phenyl-piperazin-1-yl)-3-oxo-propenyl]-pyridin-2-yl}-acrylamide hydrochloride]",≤ 1000 nM,1000 to 3000 nM,≤ 1000 nM
"CCN1CCN(C(=O)/C=C/c2cccc(/C=C/C(=O)NO)n2)CC1c1ccccc1 (racemic) [Example 64, (±)-(E)-3-{6-[(E)-3-(4-Ethyl-3-phenyl-piperazin-1-yl)-3-oxo-propenyl]-pyridin-2-yl}-N-hydroxy-acrylamide hydrochloride]",≤ 1000 nM,≤ 1000 nM,≤ 1000 nM
"O=C(/C=C/c1cccc(/C=C/C(=O)N2CCN(Cc3ccccc3)C(c3ccccc3)C2)n1)NO (racemic) [Example 65, (±)-(E)-3-{6-[(E)-3-(4-Benzyl-3-phenyl-piperazin-1-yl)-3-oxo-propenyl]-pyridin-2-yl}-N-hydroxy-acrylamide hydrochloride]",1000 to 3000 nM,1000 to 3000 nM,1000 to 3000 nM
"CC(=O)N1CCN(C(=O)/C=C/c2cccc(/C=C/C(=O)NO)n2)CC1c1ccccc1 (racemic) [Example 66, (±)-(E)-3-{6-[(E)-3-(4-Acetyl-3-phenyl-piperazin-1-yl)-3-oxo-propenyl]-pyridin-2-yl}-N-hydroxy-acrylamide hydrochloride]",≥ 3000 nM,≥ 3000 nM,≥ 3000 nM
"COc1ccccc1C1CCCN(C(=O)/C=C/c2cccc(/C=C/C(=O)NO)n2)C1 (racemic) [Example 67, (±)-(E)-N-Hydroxy-3-(6-{(E)-3-[3-(2-methoxy-phenyl)-piperidin-1-yl]-3-oxo-propenyl}-pyridin-2-yl)-acrylamide hydrochloride]",≤ 1000 nM,1000 to 3000 nM,≤ 1000 nM
"COc1cccc(C2CCCN(C(=O)/C=C/c3cccc(/C=C/C(=O)NO)n3)C2)c1 (racemic) [Example 68, (±)-(E)-N-Hydroxy-3-(6-{(E)-3-[3-(3-methoxy-phenyl)-piperidin-1-yl]-3-oxo-propenyl}-pyridin-2-yl)-acrylamide hydrochloride]",≤ 1000 nM,≤ 1000 nM,≤ 1000 nM
"COc1ccc(C2CCCN(C(=O)/C=C/c3cccc(/C=C/C(=O)NO)n3)C2)cc1 (racemic) [Example 69, (±)-(E)-N-Hydroxy-3-(6-{(E)-3-[3-(4-methoxy-phenyl)-piperidin-1-yl]-3-oxo-propenyl}-pyridin-2-yl)-acrylamide hydrochloride]",≤ 1000 nM,≤ 1000 nM,≤ 1000 nM
"O=C(/C=C/c1cccc(/C=C/C(=O)N2CCCC(c3ccccc3C(F)(F)F)C2)n1)NO (racemic) [Example 70, (±)-(E)-N-Hydroxy-3-(6-{(E)-3-oxo-3-[3-(2-trifluoromethyl-phenyl)-piperidin-1-yl]-propenyl}-pyridin-2-yl)-acrylamide hydrochloride]",≤ 1000 nM,≤ 1000 nM,≤ 1000 nM
"O=C(/C=C/c1cccc(/C=C/C(=O)N2CCCC(c3cccc(C(F)(F)F)c3)C2)n1)NO (racemic) [Example 71, (±)-(E)-N-Hydroxy-3-(6-{(E)-3-oxo-3-[3-(3-trifluoromethyl-phenyl)-piperidin-1-yl]-propenyl}-pyridin-2-yl)-acrylamide hydrochloride]",≤ 1000 nM,1000 to 3000 nM,≤ 1000 nM
"O=C(/C=C/c1cccc(/C=C/C(=O)N2CCCC(c3ccc(C(F)(F)F)cc3)C2)n1)NO (racemic) [Example 72, (±)-(E)-N-Hydroxy-3-(6-{(E)-3-oxo-3-[3-(4-trifluoromethyl-phenyl)-piperidin-1-yl]-propenyl}-pyridin-2-yl)-acrylamide hydrochloride]",≤ 1000 nM,1000 to 3000 nM,1000 to 3000 nM
"Cc1cccc(C2CCCN(C(=O)/C=C/c3cccc(/C=C/C(=O)NO)c3)C2)c1 (racemic) [Example 78, (±)-(E)-N-Hydroxy-3-{3-[(E)-3-oxo-3-(3-m-tolyl-piperidin-1-yl)-propenyl]-phenyl}-acrylamide]",≥ 3000 nM,≥ 3000 nM,≥ 3000 nM
"Cc1ccccc1C1CCCN(C(=O)/C=C/c2cccc(/C=C/C(=O)NO)c2)C1 (racemic) [Example 79, (±)-(E)-N-Hydroxy-3-{3-[(E)-3-oxo-3-(3-o-tolyl-piperidin-1-yl)-propenyl]-phenyl}-acrylamide]",≥ 3000 nM,≥ 3000 nM,≥ 3000 nM
"Cc1ccc(C2CCCN(C(=O)/C=C/c3cccc(/C=C/C(=O)NO)c3)C2)cc1 (racemic) [Example 80, (±)-(E)-N-Hydroxy-3-{3-[(E)-3-oxo-3-(3-p-tolyl-piperidin-1-yl)-propenyl]-phenyl}-acrylamide]",≥ 3000 nM,≥ 3000 nM,≥ 3000 nM
"O=C(/C=C/c1cccc(/C=C/C(=O)N2CCCC(c3ccccc3)C2)c1)NO (racemic) [Example 83, (±)-(E)-N-Hydroxy-3-{3-[(E)-3-oxo-3-(3-phenyl-piperidin-1-yl)-propenyl]-phenyl}-acrylamide]",≥ 3000 nM,≥ 3000 nM,≥ 3000 nM
